The source made the active and inactive calls. The rule behind the calls is not given here.
Assays:
[1] = Antitumor activity against 350 mm'3 human HCT116 cells xenografted in mouse assessed as tumor growth inhibition at 30 mg/kg, iv qd administered for 2 days measured after day 24 relative to control; type: functional; settings: HCT-116, iv, read-out: TGI
WiDr = assay: Cytotoxicity against human WiDr cells after 72 hrs by CellTiter96 AQueous one solution cell proliferation assay; type: functional, cell-based
Exportin-1 [2] = target: T1, Exportin-1 (Homo sapiens, UniProt O14980); assay: Inhibition of Crm1 in human Jurkat cells assessed as potentiation of bortezomib-induced antiproliferative activity by measuring cell survival at 30 to 300 nM after 72 hrs by MTT assay; type: cell-based
T1 sequence (O14980 whole entry): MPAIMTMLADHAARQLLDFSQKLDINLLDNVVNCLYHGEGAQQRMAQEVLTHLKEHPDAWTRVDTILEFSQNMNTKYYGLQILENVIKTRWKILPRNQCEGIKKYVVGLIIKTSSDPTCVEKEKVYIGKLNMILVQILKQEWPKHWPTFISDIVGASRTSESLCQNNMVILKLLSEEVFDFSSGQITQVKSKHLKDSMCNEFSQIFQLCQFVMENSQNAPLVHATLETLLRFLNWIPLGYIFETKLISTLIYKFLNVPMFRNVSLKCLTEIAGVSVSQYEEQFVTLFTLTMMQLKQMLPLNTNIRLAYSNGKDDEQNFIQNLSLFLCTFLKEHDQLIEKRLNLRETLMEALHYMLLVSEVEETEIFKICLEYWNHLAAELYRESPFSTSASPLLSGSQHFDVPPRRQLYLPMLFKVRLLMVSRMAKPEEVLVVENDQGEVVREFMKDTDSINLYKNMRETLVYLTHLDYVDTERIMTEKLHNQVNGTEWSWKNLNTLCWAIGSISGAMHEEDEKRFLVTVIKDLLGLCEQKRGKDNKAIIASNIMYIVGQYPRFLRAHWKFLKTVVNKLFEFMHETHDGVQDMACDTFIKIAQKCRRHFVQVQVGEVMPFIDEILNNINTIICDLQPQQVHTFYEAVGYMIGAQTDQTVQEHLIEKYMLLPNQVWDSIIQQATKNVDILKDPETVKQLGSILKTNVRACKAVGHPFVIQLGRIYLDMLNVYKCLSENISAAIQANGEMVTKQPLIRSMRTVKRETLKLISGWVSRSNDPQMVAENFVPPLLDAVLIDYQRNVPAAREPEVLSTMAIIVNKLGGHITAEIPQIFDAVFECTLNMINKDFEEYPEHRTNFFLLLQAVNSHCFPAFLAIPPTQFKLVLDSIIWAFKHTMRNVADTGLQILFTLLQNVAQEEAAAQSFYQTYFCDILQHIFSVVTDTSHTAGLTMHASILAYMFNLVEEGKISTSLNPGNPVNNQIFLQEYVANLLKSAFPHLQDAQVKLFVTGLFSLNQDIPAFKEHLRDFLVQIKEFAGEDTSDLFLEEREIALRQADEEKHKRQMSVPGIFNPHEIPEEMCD

COLO 320 = assay: Cytotoxicity against human COLO320 cells after 72 hrs by CellTiter96 AQueous one solution cell proliferation assay; type: functional, cell-based
HPAC = assay: Cytotoxicity against human HPAC cells after 72 hrs by CellTiter96 AQueous one solution cell proliferation assay; type: functional, cell-based
SW480 = assay: Cytotoxicity against human SW480 cells after 72 hrs by CellTiter96 AQueous one solution cell proliferation assay; type: functional, cell-based
HCC827 = assay: Cytotoxicity against human HCC827 cells after 72 hrs by CellTiter96 AQueous one solution cell proliferation assay; type: functional, cell-based
NCI-H520 = assay: Cytotoxicity against human NCI-H520 cells after 72 hrs by CellTiter96 AQueous one solution cell proliferation assay; type: functional, cell-based
NCI-H226 = assay: Cytotoxicity against human NCI-H226 cells after 72 hrs by CellTiter96 AQueous one solution cell proliferation assay; type: functional, cell-based
BL-41 = assay: Cytotoxicity against human BL41 cells after 72 hrs by CellTiter96 AQueous one solution cell proliferation assay; type: functional, cell-based
SW-620 = assay: Cytotoxicity against human SW620 cells after 72 hrs by CellTiter96 AQueous one solution cell proliferation assay; type: functional, cell-based
4T1 = assay: Cytotoxicity against mouse 4T1 cells after 72 hrs by CellTiter96 AQueous one solution cell proliferation assay; type: functional, cell-based
NCI-H2122 = assay: Cytotoxicity against human NCI-H2122 cells after 72 hrs by CellTiter96 AQueous one solution cell proliferation assay; type: functional, cell-based
Exportin-1 [3] = target: T1, Exportin-1; assay: Inhibition of Crm1 in human HS-Sultan cells assessed as potentiation of bortezomib-induced antiproliferative activity by measuring cell survival at 30 to 300 nM after 72 hrs by MTT assay; type: cell-based
MM1.S [4] = assay: Antitumor activity against 130 mm'3 human MM1S cells xenografted in mouse assessed as tumor growth inhibition at 150 mg/kg, sc qd administered for 5 days; type: functional, organism-based
PC-3 = assay: Cytotoxicity against human PC3 cells after 72 hrs by CellTiter96 AQueous one solution cell proliferation assay; type: functional, cell-based
Exportin-1 [5] = target: T1, Exportin-1; assay: Inhibition of Crm1 in human MM1R cells assessed as potentiation of bortezomib-induced antiproliferative activity by measuring cell survival at 30 to 300 nM after 72 hrs by MTT assay; type: cell-based
Homo sapiens [6] = species on record: Homo sapiens; assay: Cytotoxicity against human LS123 cells after 72 hrs by CellTiter96 AQueous one solution cell proliferation assay; type: functional, cell-based
HeLa = assay: Cytotoxicity against human HeLa cells after 72 hrs by CellTiter96 AQueous one solution cell proliferation assay; type: functional, cell-based
Jurkat = assay: Cytotoxicity against human Jurkat cells after 72 hrs by CellTiter96 AQueous one solution cell proliferation assay; type: functional, cell-based
786-0 = assay: Cytotoxicity against human 786-0 cells after 72 hrs by CellTiter96 AQueous one solution cell proliferation assay; type: functional, cell-based
NCI-H1838 = assay: Cytotoxicity against human NCI-H1838 cells after 72 hrs by CellTiter96 AQueous one solution cell proliferation assay; type: functional, cell-based
HCC4006 = assay: Cytotoxicity against human HCC4006 cells after 72 hrs by CellTiter96 AQueous one solution cell proliferation assay; type: functional, cell-based
Homo sapiens [7] = species on record: Homo sapiens; assay: Cytotoxicity against human H2935 cells after 72 hrs by CellTiter96 AQueous one solution cell proliferation assay; type: functional, cell-based
MM1R = assay: Cytotoxicity against human MM1R cells after 72 hrs by CellTiter96 AQueous one solution cell proliferation assay; type: functional, cell-based
Caov-3 = assay: Cytotoxicity against human Caov3 cells after 72 hrs by CellTiter96 AQueous one solution cell proliferation assay; type: functional, cell-based
HCT-116 = assay: Cytotoxicity against human HCT116 cells after 72 hrs by CellTiter96 AQueous one solution cell proliferation assay; type: functional, cell-based
NCI-H460 = assay: Cytotoxicity against human NCI-H460 cells after 72 hrs by CellTiter96 AQueous one solution cell proliferation assay; type: functional, cell-based
[8] = Toxicity in mouse xenografted with 350 mm'3 human HCT116 cells assessed as effect on complete blood count at 150 mg/kg, sc qd administered for 5 days started on day 9 post 75 mg/kg dosing; type: organism-based, HCT-116; settings: in vivo, 120 h
DLD-1 = assay: Cytotoxicity against human DLD1 cells after 72 hrs by CellTiter96 AQueous one solution cell proliferation assay; type: functional, cell-based
HS-Sultan = assay: Cytotoxicity against human HS-Sultan cells after 72 hrs by CellTiter96 AQueous one solution cell proliferation assay; type: functional, cell-based
[9] = Toxicity in mouse xenografted with 350 mm'3 human HCT116 cells assessed as effect on clinical chemistry parameters at 150 mg/kg, sc qd administered for 5 days started on day 9 post 75 mg/kg dosing; type: organism-based, HCT-116; settings: in vivo, 120 h
[10] = Antitumor activity against 350 mm'3 human HCT116 cells xenografted in mouse assessed as tumor growth inhibition at 150 mg/kg, sc qd administered for 5 days started on day 9 post 75 mg/kg dosing measured after day 24 relative to control; type: functional, HCT-116
DU-145 = assay: Cytotoxicity against human DU145 cells after 72 hrs by CellTiter96 AQueous one solution cell proliferation assay; type: functional, cell-based
RPMI18226 = assay: Cytotoxicity against human […] cells after 72 hrs by CellTiter96 AQueous one solution cell proliferation assay; type: functional, cell-based
HCT-8 = assay: Cytotoxicity against human HCT8 cells after 72 hrs by CellTiter96 AQueous one solution cell proliferation assay; type: functional, cell-based
LS180 = assay: Cytotoxicity against human LS180 cells after 72 hrs by CellTiter96 AQueous one solution cell proliferation assay; type: functional, cell-based
Exportin-1 [11] = target: T1, Exportin-1; assay: Inhibition of Crm1 in human MM1S cells assessed as potentiation of bortezomib-induced antiproliferative activity by measuring cell survival at 30 to 300 nM after 72 hrs by MTT assay; type: cell-based
[12] = Antitumor activity against 350 mm'3 human HCT116 cells xenografted in mouse assessed as tumor growth inhibition at 75 mg/kg, sc qd administered for 5 days measured after day 24 relative to control; type: functional; settings: HCT-116, sc, read-out: TGI
Exportin-1 [13] = target: T1, Exportin-1; assay: Inhibition of Crm1 in human U2OS cells expressing GFP-fused HIV1 Rev assessed as decrease in nuclear export of GFP-fused HIV1 Rev after 1 hr by Hoechst 33258 staining-based assay; type: cell-based
NCI-H2030 = assay: Cytotoxicity against human NCI-H2030 cells after 72 hrs by CellTiter96 AQueous one solution cell proliferation assay; type: functional, cell-based
HCT-15 = assay: Cytotoxicity against human HCT15 cells after 72 hrs by CellTiter96 AQueous one solution cell proliferation assay; type: functional, cell-based
LoVo = assay: Cytotoxicity against human LoVo cells after 72 hrs by CellTiter96 AQueous one solution cell proliferation assay; type: functional, cell-based
MG-63 = assay: Cytotoxicity against human MG63 cells after 72 hrs by CellTiter96 AQueous one solution cell proliferation assay; type: functional, cell-based
MCF7 = assay: Cytotoxicity against human MCF7 cells after 72 hrs by CellTiter96 AQueous one solution cell proliferation assay; type: functional, cell-based
MM1.S [14] = assay: Antitumor activity against 1300 mm'3 human MM1S cells xenografted in mouse assessed as tumor growth inhibition at 150 mg/kg, sc qd administered for 5 days; type: functional, organism-based

## CCc1c2c(nc3ccc(OC(=O)N4CCC(N5CCCCC5)CC4)cc13)-c1cc3c(c(=O)n1C2)COC(=O)[C@]3(O)CC [IRINOTECAN]
[1]
  inhibition in vivo at 30 mg/kg: 78%

## CC(C)OC(=O)/C=C\n1cnc(-c2ccc(Cl)cc2)n1
WiDr
  Activity: Active
Exportin-1 [2]
  inhibition: Active
COLO 320
  Activity: Active
HPAC
  Activity: Active
SW480
  Activity: Active
HCC827
  Activity: Active
NCI-H520
  Activity: Active
NCI-H226
  Activity: Active
BL-41
  Activity: Active
SW-620
  Activity: Active
4T1
  Activity: Active
NCI-H2122
  Activity: Active
Exportin-1 [3]
  inhibition: Active
MM1.S [4]
  TGI: Active
PC-3
  Activity: Active
Exportin-1 [5]
  inhibition: Active
Homo sapiens [6]
  Activity: Active
HeLa
  Activity: Active
Jurkat
  Activity: Active
786-0
  Activity: Active
NCI-H1838
  Activity: Active
HCC4006
  Activity: Active
Homo sapiens [7]
  Activity: Active
MM1R
  Activity: Active
Caov-3
  Activity: Active
HCT-116
  Activity: Active
NCI-H460
  Activity: Active
[8]
  Activity: Non-Toxic
DLD-1
  Activity: Active
HS-Sultan
  Activity: Active
[9]
  Activity: Non-Toxic
[10]
  TGI: 60%
DU-145
  Activity: Active
RPMI18226
  Activity: Active
HCT-8
  Activity: Active
LS180
  Activity: Active
Exportin-1 [11]
  inhibition: Active
[12]
  inhibition in vivo at 75 mg/kg: 31%
Exportin-1 [13]
  IC50: ≤ 1000 nM
NCI-H2030
  Activity: Active
HCT-15
  Activity: Active
LoVo
  Activity: Active
MG-63
  Activity: Active
MCF7
  Activity: Active
MM1.S [14]
  TGI: Active

From ChEMBL document CHEMBL3879893, “Nuclear transport modulators and uses thereof” (2011)
